Measurements from ChEMBL document CHEMBL1148698, “Chemotherapy of leishmaniasis. Part VII: synthesis and bioevaluation of substituted terpenyl pyrimidines” (2007).
The source made the active and inactive calls. The rule behind the calls is not given here.

Each molecule was assayed on Leishmania donovani (assay: Antileishmanial activity against Leishmania donovani HOM/IN/80DD8 in hamster at 50 mg/kg, ip after 7 days). Settings: not given.
In the case of `CC1=C(/C=C/c2cc(Nc3ccc(Cl)cc3)nc(N)n2)C(C)(C)CCC1`, the Activity is reported as “inactive”. With `CC1=C(/C=C/c2cc(NC3CCCCC3)nc(N)n2)C(C)(C)CCC1` the Activity was “inactive”. With `CC1=C(/C=C/c2cc(N3CCNCC3)nc(N)n2)C(C)(C)CCC1` the Activity was “inactive”. With `CC1=C(/C=C/c2cc(NN)nc(N)n2)C(C)(C)CCC1` the Activity was “inactive”. `CC1=C(/C=C/c2cc(Nc3cccc(F)c3)nc(N)n2)C(C)(C)CCC1` was tested, and the Activity was “inactive”. In the case of `CC1=C(/C=C/c2cc(N3CCCCC3)nc(N)n2)C(C)(C)CCC1`, the Activity is reported as “inactive”. `COc1ccc(Nc2cc(/C=C/C3=C(C)CCCC3(C)C)nc(N)n2)cc1` was tested, and the Activity was “inactive”. For `CC1=C(/C=C/c2cc(NCc3ccccc3)nc(N)n2)C(C)(C)CCC1`, the Activity was “inactive”. `CC1=C(/C=C/c2cc(Nc3ccc(F)cc3)nc(N)n2)C(C)(C)CCC1` was tested, and the Activity was “inactive”. For `CC1=C(/C=C/c2cc(N3CCN(c4ccccc4)CC3)nc(N)n2)C(C)(C)CCC1`, the Activity was “inactive”. `CC1=C(/C=C/c2cc(N3CCOCC3)nc(N)n2)C(C)(C)CCC1` was tested, and the Activity was “inactive”.

Same assay, conditions: HOM/IN/80DD8, ip, 168 h
Molecule `CC1=C(/C=C/c2cc(Nc3ccccc3)nc(N)n2)C(C)(C)CCC1` has an inhibition in vivo at 50 mg/kg of 31%. `CSc1cc(/C=C/C2=C(C)CCCC2(C)C)nc(N)n1` showed an inhibition in vivo at 50 mg/kg of 66%. Molecule `CCN(c1ccccc1)c1cc(/C=C/C2=C(C)CCCC2(C)C)nc(N)n1` has an inhibition in vivo at 50 mg/kg of 40%.
